The compounds below were run against ErbB2 (Homo sapiens, UniProt P04626) (assay: ErbB kinase ELISA on poly-Glu-Tyr 4:1 coated microtiter plates). Conditions: PGT substrate, ATP, baculovirus ErbB2, 30 minutes at room temperature, optical density at 450 nm.
Format: biochemical
Procedure: The extent to which the compounds of the present invention modulate ErbB kinase activity can be determined using the following enzyme-linked immunosorbent assay (ELISA), which employs a microtiter plate coated with a protein tyrosine kinase specific polymer substrate. The phosphorylation reaction is performed on poly-Glu-Tyr 4:1 (PGT) coated microtiter plates in the presence on Mg^++, ATP and EGFR. The phosphorylated polymer substrate is detected with a phosphotyrosine specific monoclonal antibody conjugated to horseradish peroxidase (HRP). Chromogenic substrate (TMB) color is quantitiated by spectrophotometry.
The assay is performed in a 96-well microtiter plate (Immunlon 4, available from Dynex). To prepare the plate, 100 μL of 0.25 mg/mL Poly (Glu,Tyr) 4:1 Sodium Salt (available from Sigma, Catalog Number P0275) in phosphate buffered saline (PBS) is added to each well and the plates are sealed. Following incubation overnight at ambient temperature, this coating solution is removed and the plates are washed three times with 300 μL of 0.1% Tween 20 (available from Sigma, Catalog Number P2287) in PBS. If not using immediately, the coated microtiter plates may be stored at 2-8° C. with 150 μL of 0.1% Tween 20 in PBS in each well.
The compound to be tested is dissolved in DMSO at an initial concentration of 1.0 mM. This initial concentration is diluted 1:25 in DMSO, and the resulting solution is further serially diluted 1:5 eight times in DMSO. To 10 μL of the initial concentration and each dilution are added 240 μL Reaction Buffer (50 mM HEPES, 125 mM NaCl, 24 mM MgCl2, 0.1 mM Na3VO4 (boiled at pH 10 until colorless—approximately 10 minutes—and cooled prior to use), pH 7.3, filtered through a 0.2 micron filter). 25 μL of each compound solution (4% DMSO in Reaction Buffer for control) is placed in a separate microtiter plate well, along with 50 μL Reaction Buffer +ATP (15 μL 10 of mM ATP added to 5 mL Reaction Buffer) and 25 μL Reaction Buffer into which a catalytic amount of baculovirus ErbB2 has been added. The plate is then covered and incubated for 30 minutes at room temperature, after which time all liquid is aspirated from each well. The plate is washed three times with 300 μL of 0.1% Tween in PBS. Residual wash solution is removed by inverting the plate and blotting on a paper towel.
To each well is then added 100 μL of PBS containing 3% bovine serum albumin (protease-free, IgG-free, Jackson Catalog Number 001-000-162), 0.05% Tween 20 and 0.2 μg/mL anti-phosphotyrosine horseradisn peroxidase (available from Zymed, Laboratories, Inc., Catalog Number 03-7720). The plate is covered and incubated for 30 minutes at room temperature, after which time all liquid is aspirated from each well. The plate is washed three times with 300 μL of 0.1% Tween in PBS. Residual wash solution is removed by inverting the plate and blotting on a paper towel. To each well is then added 100 μL of TMB peroxidase substrate system (KPL Catalog Number 50-76-00), and the plate is allowed to incubate for 25 minutes at room temperature, at which time the reaction is stopped by the addition of 100 μL of 1M phosphoric acid to each well. The plate is tapped gently to ensure mixing.
Within about thirty minutes after the reaction is stopped, the optical density at 450 nm of each well is determined using a microtiter plate reader. A dose response curve is generated by plotting optical density versus compound concentration. IC50 is calculated from this curve using methods known in the art.

Chain of ErbB2 (P04626 23-1255): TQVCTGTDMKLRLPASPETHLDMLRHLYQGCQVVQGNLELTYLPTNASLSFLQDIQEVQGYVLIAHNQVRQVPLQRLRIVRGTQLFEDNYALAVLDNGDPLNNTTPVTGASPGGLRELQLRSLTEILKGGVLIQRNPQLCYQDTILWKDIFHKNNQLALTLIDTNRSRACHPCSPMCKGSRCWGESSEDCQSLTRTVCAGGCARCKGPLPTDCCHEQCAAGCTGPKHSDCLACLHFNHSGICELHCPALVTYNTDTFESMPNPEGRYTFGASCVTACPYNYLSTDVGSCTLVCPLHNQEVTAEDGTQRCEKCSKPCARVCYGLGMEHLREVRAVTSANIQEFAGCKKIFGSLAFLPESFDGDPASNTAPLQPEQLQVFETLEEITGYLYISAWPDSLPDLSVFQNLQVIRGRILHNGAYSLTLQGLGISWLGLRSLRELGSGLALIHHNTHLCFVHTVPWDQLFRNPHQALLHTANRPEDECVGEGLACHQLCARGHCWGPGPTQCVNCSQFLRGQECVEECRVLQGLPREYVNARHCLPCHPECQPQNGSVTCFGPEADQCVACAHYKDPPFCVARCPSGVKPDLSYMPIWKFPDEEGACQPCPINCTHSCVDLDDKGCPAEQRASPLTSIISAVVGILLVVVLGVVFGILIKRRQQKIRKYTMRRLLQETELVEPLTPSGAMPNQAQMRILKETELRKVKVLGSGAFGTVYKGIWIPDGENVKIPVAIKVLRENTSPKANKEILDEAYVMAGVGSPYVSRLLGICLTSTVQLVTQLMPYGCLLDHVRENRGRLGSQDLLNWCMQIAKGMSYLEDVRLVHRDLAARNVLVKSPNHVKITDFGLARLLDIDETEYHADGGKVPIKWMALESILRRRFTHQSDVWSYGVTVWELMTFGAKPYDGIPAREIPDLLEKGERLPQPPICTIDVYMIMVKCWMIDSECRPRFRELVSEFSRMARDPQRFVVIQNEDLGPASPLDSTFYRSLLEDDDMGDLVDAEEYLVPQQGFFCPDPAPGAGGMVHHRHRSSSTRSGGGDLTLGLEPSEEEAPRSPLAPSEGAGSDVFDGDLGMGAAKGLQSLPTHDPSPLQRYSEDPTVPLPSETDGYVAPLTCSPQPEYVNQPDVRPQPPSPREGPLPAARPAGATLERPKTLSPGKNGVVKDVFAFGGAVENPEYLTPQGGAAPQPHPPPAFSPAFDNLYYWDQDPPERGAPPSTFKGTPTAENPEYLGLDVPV

IC50 [nM]	Compound
40	CN/C(=N/C#N)NCCCOc1cc2c(Nc3ccc(OCc4cccc(F)c4)c(Cl)c3)ncnc2cc1OC [Example 8, N-(3-{4-[3-Chloro-4-(3-fluoro-benzyloxy)-phenylamino]-7-methoxy-quinazolin-6-yloxy}-propyl) -N′-cyano-N″-methylguanidine]
85	CN(C)/C(=N\C#N)NCC#Cc1ccc2ncnc(Nc3ccc(OCc4cccc(F)c4)c(Cl)c3)c2c1 [Example 1, N-(3-{4-[3-Chloro-4-(3-fluoro-benzyloxy)-phenylamino]-quinazolin-6-yl}-prop-2-ynyl)-N′-cyano-N″,N″-dimethylguanidine]
410	N#C/N=C(/NCC#Cc1ccc2ncnc(Nc3ccc(OCc4cccc(F)c4)c(Cl)c3)c2c1)NCCO [Example 2, N-(3-{4-[3-Chloro-4-(3-fluoro-benzyloxy)-phenylamino]-quinazolin-6-yl}-prop-2-ynyl)-N′-cyano-N″-3-(2-hydroxy-ethyl)guanidine]
31	Cc1ccc(Oc2ccc(Nc3ncnc4ccc(-c5csc(CN/C(N)=N\C#N)n5)cc34)cc2C)cn1 [Example 5, N-cyano-N′-(4-{4-[3-Methyl-4-(6-methyl-pyridin-3-yloxy)-phenylamino]-quinazolin-6-yl}-thiazol-2-ylmethyl)guanidine]
14	COc1cc2ncnc(Nc3ccc(OCc4ccccn4)c(Cl)c3)c2cc1OCCCN/C(=N\C#N)N(C)CCN(C)C [Example 6, N-(3-{4-[3-Chloro-4-(pyridin-2-ylmethoxy)-phenylamino]-7-methoxy-quinazolin-6-yloxy}-propyl)-N′-cyano-N″-(2-dimethylamino-ethyl)-N″-methylguanidine]
33	COc1cc2ncnc(Nc3ccc(OCc4ccccn4)c(Cl)c3)c2cc1OCCCN/C(=N\C#N)N(C)C [Example 7, N-(3-{4-[3-Chloro-4-(pyridin-2-ylmethoxy)-phenylamino]-7-methoxy-quinazolin-6-yloxy}-propyl)-N′-cyano-N″,N″-dimethylguanidine]
17	COCCN(C)/C(=N/C#N)NC/C=C/c1ccc2ncnc(Nc3ccc4c(cnn4Cc4cccc(F)c4)c3)c2c1 [Example 10, N-cyano-N′-(3-{4-[1-(3-Fluoro-benzyl)-1H-indazol-5-ylamino]-quinazolin-6-yl}-allyl)-N″-(2-methoxy-ethyl)-N″-methylguanidine]
12	N#C/N=C(\NCC#Cc1ccc2ncnc(Nc3ccc4c(cnn4Cc4cccc(F)c4)c3)c2c1)N1CCOCC1 [Example 9, N-cyano-N′-(3-{4-[1-(3-Fluoro-benzyl)-1 H-indazol-5-ylamino]-quinazolin-6-yl}-prop-2-ynyl)-morpholine-4-carboxamidine]
8	Cc1ccc(Oc2ccc(Nc3ncnc4ccc(C#CCN/C(N)=N/C#N)cc34)cc2C)cn1 [Example 3, N-cyano-N′-(3-{4-[3-Methyl-4-(6-methyl-pyridin-3-yloxy)-phenylamino]-quinazolin-6-yl}-prop-2-ynyl)guanidine]
13	N#C/N=C(\NCc1ccc(-c2ccc3ncnc(Nc4ccc(OCc5cccc(F)c5)c(Cl)c4)c3c2)o1)N1CCOCC1 [Example 4, N-(5-{4-[3-Chloro-4-(3-fluoro-benzyloxy)-phenylamino]-quinazolin-6-yl}-furan-2-ylmethyl)-N′-cyano-morpholine-4-carboxamidine]

From patent US7488823B2, “Cyanoguanidines and cyanoamidines as ErbB2 and EGFR inhibitors” (Array Biopharma, Inc., priority 2003, dated 2009)
